The values that follow come from ChEMBL document CHEMBL3621062, “Discovery, SAR, and X-ray Binding Mode Study of BCATm Inhibitors from a Novel DNA-Encoded Library” (ACS Med Chem Lett, 2015).

SMILES strings stand for the structures.

In this test the target is T1, Branched-chain-amino-acid aminotransferase, mitochondrial (Homo sapiens, UniProt O15382).
T1 sequence (O15382 whole entry): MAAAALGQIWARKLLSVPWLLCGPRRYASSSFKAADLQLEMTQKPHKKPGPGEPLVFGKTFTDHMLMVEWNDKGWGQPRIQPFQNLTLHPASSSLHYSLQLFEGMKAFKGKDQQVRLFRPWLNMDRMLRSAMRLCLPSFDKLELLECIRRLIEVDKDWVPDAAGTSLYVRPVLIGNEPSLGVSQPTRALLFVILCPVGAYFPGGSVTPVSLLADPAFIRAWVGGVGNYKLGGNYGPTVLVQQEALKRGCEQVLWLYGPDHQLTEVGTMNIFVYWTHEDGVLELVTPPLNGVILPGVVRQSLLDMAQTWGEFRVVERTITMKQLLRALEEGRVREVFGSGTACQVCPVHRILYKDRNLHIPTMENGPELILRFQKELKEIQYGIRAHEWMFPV
Nature of the test: Inhibition of human BCATm after 10 mins by fluorescent assay.
What is called IC50 is the concentration at which inhibition is half-maximal. Higher therefore signals weaker potency. For the molecule `CNC(=O)c1ccc(-c2cccc(C(=O)O)c2)cc1OC1CCN(C(=O)c2cc(Br)ccc2NC(=O)OC(C)(C)C)C1` (stereo not given), the IC50 was greater than 100 µM. Then `CNC(=O)c1ccc(-c2cccc(C(=O)O)c2)cc1OC1CCN(C(=O)c2cc(Br)ccc2N)C1` (stereo not given), with greater than 100 µM; and `CNC(=O)c1ccc(-c2cccc(C(=O)O)c2)cc1OC1CCN(C(=O)c2ccc(Br)s2)C1` (stereo not given), with 74.1 µM. The value for `CNC(=O)c1ccc(-c2ccccc2NS(C)(=O)=O)cc1O[C@@H]1CCN(C(=O)c2ccc(Br)s2)C1` was 2 µM; that for `CNC(=O)c1ccc(-c2ccccc2NS(C)(=O)=O)cc1O[C@@H]1CCN(C(=O)c2ccc(Cl)s2)C1` was 2.8 µM; that for `CNC(=O)c1ccc(-c2ccccc2NS(C)(=O)=O)cc1O[C@@H]1CCN(C(=O)c2ccc(C#N)s2)C1` was 15.1 µM. Then `CNC(=O)c1ccc(-c2ccccc2C)cc1O[C@@H]1CCN(C(=O)c2ccc(Br)s2)C1`, with 64.6 µM; and `CNC(=O)c1ccc(-c2ccccc2)cc1O[C@@H]1CCN(C(=O)c2ccc(Br)s2)C1`, with greater than 100 µM. Take `CNC(=O)c1ccccc1OC1CCN(C(=O)c2ccc(Br)s2)C1` (stereo not given): the IC50 is greater than 100 µM. The value for `CNC(=O)c1ccc(-c2ccccc2NS(C)(=O)=O)cc1OC1CCN(C(=O)c2ccc(Br)s2)C1` (racemic) was 3.9 µM.
